The results in this text go back to patent US20190194148A1, “TETRAZOLE-CONTAINING 1,2-CYCLOPROPANE-CARBOXAMIDES” (Bayer Pharma Aktiengesellschaft, priority 2017, published 2019).

Read-outs that look alike come from different tables or passages of the source.

One data set has as its system IL-8 secretion. The data set is described as follows: Bradykinin B1 receptor agonist-induced secretion of IL-8 in human IMR-90 cells. The format is cell-based. The settings on record: IMR-90 cells stimulated with 0.1 μM Lys-[Des-Arg9]Bradykinin and 0.1 μM Sar-[D-Phe8]-des-Arg9-Bradykinin for 5 hours. From the text:
(§1) Inhibitory Activity on Bradykinin B1 Receptor Agonist-Induced Secretion of IL-6 and IL-8 in Human IMR-90 Cells
(§2) The effect of the example compounds on cytokine secretion has been investigated in the human fetal lung fibroblast IMR-90 cell line. Here the induction of the cytokine secretion was induced by the Bradykinin B1 receptor agonists Lys-[Des-Arg9]Bradykinin and Sar-[D-Phe8]-des-Arg9-Bradykinin leading to the activation of the Bradykinin B1 receptor-driven signaling pathway.
(§3) IMR-90 cells were cultured in Eagle's Minimum Essential Medium (EMEM) containing 2 mM L-glutamine, 1 g/L glucose, 1.5 g/L NaHCO3, 1 mM sodium pyruvate and non-essential amino acids (ATCC, 30-2003™) supplemented with 10% FBS (Biochrom, S0615) and 50 U/mL Penicillin, 50 μg/mL Streptomycin (PAA, P11-010). The assay was performed in EMEM and a cell density of […] IMR-90 cells/96-well. The example compounds have been serial diluted in 100% DMSO and evaluated at 8 different concentrations within the range of 3 nM and 10 μM and a final DMSO concentration of 0.4%. […] The amount of IL-6 and IL-8 in the supernatant was determined using the Human Prolnflammatory 9-Plex (MSD, K15007B) according to manufacturer's instruction. The cell viability was measured using the CellTiter-Glo Luminescent Assay (Promega, G7571) following the manufacturers protocol. […]

The next data set has as its system IL-6 secretion. The data set is described as follows: Bradykinin B1 receptor agonist-induced secretion of IL-6 in human IMR-90 cells. In kind it is cell-based. As to conditions: IMR-90 cells stimulated with 0.1 μM Lys-[Des-Arg9]Bradykinin and 0.1 μM Sar-[D-Phe8]-des-Arg9-Bradykinin for 5 hours.
From the text: as §1, §2, §3

The next data set addresses T1, human B1 receptor (Homo sapiens, UniProt P46663).
T1 construct: host or cells: CHO-K1
T1 sequence (P46663 1-353): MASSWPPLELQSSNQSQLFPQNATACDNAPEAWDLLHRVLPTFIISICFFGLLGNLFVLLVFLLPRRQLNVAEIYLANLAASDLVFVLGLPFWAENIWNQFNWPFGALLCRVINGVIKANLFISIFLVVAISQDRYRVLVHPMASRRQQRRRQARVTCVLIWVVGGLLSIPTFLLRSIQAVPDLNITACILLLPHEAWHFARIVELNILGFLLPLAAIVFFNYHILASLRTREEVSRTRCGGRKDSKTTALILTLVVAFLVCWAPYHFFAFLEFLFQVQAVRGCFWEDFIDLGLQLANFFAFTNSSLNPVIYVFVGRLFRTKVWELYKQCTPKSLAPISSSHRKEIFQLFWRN
The data set can be described thus: Calcium flux assay (FLIPR) with recombinant CHO-K1 cells expressing human B1 receptor. In kind it is cell-based. Put shortly: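 Indicator-loaded CHO-K1 cells expressing human B1 receptor were pre-incubated with compound (8 concentrations, triplicate, 1% DMSO) for 30 min at 28° C, in assay buffer with or without 0.1% BSA (hB1 IC50 vs free IC50). They were then challenged with Lys-(Des-Arg)-bradykinin from plates at 3.5×EC90, with peak FLIPR fluorescence read at 538 nm. IC50 was fitted from % response between DMSO and full block by 20 μM Lys-(Des-Arg-Leu)-bradykinin.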
In general terms: A change in cytosolic calcium serves as a functional read-out for many receptors and channels.

A further data set concerns IMR-90 cells. The data set can be described thus: Cell viability of stimulated IMR-90 cells (CellTiter-Glo). In kind it is cell-based, human. Here is the method:
IMR-90 cells were cultured in Eagle's Minimum Essential Medium (EMEM) containing 2 mM L-glutamine, 1 g/L glucose, 1.5 g/L NaHCO3, 1 mM sodium pyruvate and non-essential amino acids (ATCC, 30-2003™) supplemented with 10% FBS (Biochrom, S0615) and 50 U/mL Penicillin, 50 μg/mL Streptomycin (PAA, P11-010). The assay was performed in EMEM and a cell density of […] IMR-90 cells/96-well. The example compounds have been serial diluted in 100% DMSO and evaluated at 8 different concentrations within the range of 3 nM and 10 μM and a final DMSO concentration of 0.4%. The IMR-90 cells have been incubated with the respective concentration of the example compound for 30 min. The enhanced secretion of IL-6 and IL-8 was induced by the stimulation of these cells with 0.1 μM Lys-[Des-Arg9]Bradykinin (Tocris, 3225) and 0.1 μM Sar-[D-Phe8]-des-Arg9-Bradykinin (Tocris, 3230) for 5 hours at 37° C. and 5% CO2. Further, cells have been treated with Lys-[Des-Arg9] Bradykinin and Sar-[D-Phe8]-des-Arg9-Bradykinin as neutral control and with 0.1% DMSO as inhibitor control. The amount of IL-6 and IL-8 in the supernatant was determined using the Human Prolnflammatory 9-Plex (MSD, K15007B) according to manufacturer's instruction. The cell viability was measured using the CellTiter-Glo Luminescent Assay (Promega, G7571) following the manufacturers protocol.
On the technique in general: In ATP-based viability assays light output follows the ATP content of the culture.

As to `CC(C)(C)c1cn(-c2ccc(NC(=O)C3CC3c3ccc(Cl)cc3)cc2-c2nnn[nH]2)cn1` (racemic) [Example 48, N-[4-(4-tert-butyl-1H-imidazol-1-yl)-3-(1H-tetrazol-5-yl)phenyl]-2-(4-chlorophenyl)cyclo-propanecarboxamide], the IC50 (usually the midpoint of a concentration-inhibition curve) in the data set with IL-8 secretion stood at 0.164 µM; with IL-6 secretion it was 0.192 µM; on human B1 receptor (absence of 0.1% BSA in assay buffer, read-out: hB1 free IC50) it was 0.01 µM; at human B1 receptor (presence of 0.1% BSA in assay buffer, read-out: hB1 IC50), 0.025 µM. In the data set on IMR-90 cells, the “effect on the cell viability” value is “no effect”.
